The values below come from patent US20160355503A1, “NITROGEN HEXACYCLE COMPOUNDS AS INHIBITORS OF p97 COMPLEX” (Cleave Biosciences, Inc., priority 2015, published 2016).

In data set [1] the target is p97 (Homo sapiens, UniProt P55072). Put plainly: P97 ATPase biochemical assay (ADP Glo). The conditions noted are these: 20 nM p97, 20 μM ATP, 37° C. for 15 minutes. As for the experimental part:
The ATPase assay is performed according the following protocol: Purified enzyme (20 nM p97), substrate (20 μM ATP) and a dose titration of compounds are mixed in buffer (50 mM TRIS pH 7.5, 20 mM MgCl2, 0.02% TX-100, 1 mM DTT, 0.2% (v/v) glycerol) and incubated at 37° C. for 15 minutes. The reaction is terminated and the level of product generated is measured using the ADP Glo Assay Kit (Promega, Madison Wis.). Plotting product generated versus compound concentration and using a four-parameter fit model generates an IC50 value for each compounds.
The p97 assay is an initial screening assay used to determine inhibitory activity of the triazine compounds of the invention against the p97 complex. As discussed above, inhibition of activity of the p97 proteosome complex can enable apoptosis and cause elimination of neoplastic cells (cancer cells). The method follows that of Christianson in Nat. Cell Biol., (2011) 14:93.
Assay Buffer is a mixture of 50 mM TRIS pH 7.5, 20 mM MgCl2, 0.02% TX-100, 1 mM DTT and 0.2% (v/v) Glycerol. The well plate is Platetype: Corning 3674, 384w plate. The identification kit is an ADP glo kit (Promega): stop buffer, detection reagent.
Serial dilute compound in DMSO in a 1:3.33-fold 10 point serial dilution.
in each well of 384w plate add the following reagents:
0.5 μL compound serial diluted in DMSO (Final Conc. 10%)
2 μL ATP (Final Conc.=20 uM, diluted in assay buffer)
2.5 μL p97 (Final Conc.=20 nM, diluted in assay buffer)
Incubate at 37 deg C. for 15 min.
Add 5 μL of stop buffer, incubate at RT for 40 min.
Add 10 μL of detection reagent, incubate at RT for 30 min.
Read luminescence on Envision plate reader.
Upon obtaining the data from the luminescence reading, the data may be analyzed as follows:
Normalize luminescence data using no enzyme (full inhibition) and no compound (no inhibition) controls. Plot normalized luminescence data against log-transformed concentration values and fit to a sigmoidal curve to determine IC50 values (done in Collaborative Drug Discovery software).
In general terms: ADP-Glo turns the ADP formed in a reaction into a luminescent signal.

In data set [2] the test system is A549 cells. The data set is described as follows: Cultured cancer cell viability assay (cell titer glo, CTG). The data set is classed as cell-based. The conditions noted are these: Homo sapiens, 72 hr incubation. From the text:
Anti-tumor effects are monitored in cultured cancer cells after several days of compound treatment. The cell titer glo assay (Promega) measures the amount of ATP present as a proxy for cellular viability. Cellular counting is done using high-content microscopy followed by image analysis. A hanging drop 3D-culture system (3D Biomatrix) is used followed by cell titer glo to measure growth in a tumor-like environment.
(§1) The cellular assay provides information about the anti-neoplastic activity of the compounds of the invention. The compounds are tested against cultured cancer cells to determine whether or not the compounds of the invention are capable of intersecting with cancer cells to minimize or eliminate such cells. The assay involves establishing colonies of such cells and then treating them with the test compound under specified conditions and analysis regima to determine results.
(§2) Cell Plating: • Seed cells ˜16 hrs prior to compound treatment • Plate 25 μL of A549 cells in every well of 384-well plate using multidrop. • Two (2) black plates for IF at 2500 cells/well • Let plate sit at room temp for 10-15 minutes prior to putting in incubator to allow cells to stick in middle of plate. • One (1) white plate for viability at 500 cells/well.
(§3) Treat Cells: • Serial dilute compounds with a 10 point 2-fold serial dilution in DMSO to make 250× stock compound solution • Dilute compounds 1:125 in cell culture media to make a 2× solution • Add 25 μl of dilution compounds to cell plates in well duplicates • Put cells back in incubator (6 hr incubation for black plates, 72 hr incubation for white plates).
Viability Assay: • Thaw an aliquot of frozen cell titer glo (Promega G7572) at room temperature. • Add 45 mL of NaCl/PBS solution to 5 ml of cell titer glo (10×). • Remove white plates from incubator, leave at room temp for 30 minutes. • Add 25 μl of diluted cell titer glo to each well. • Shake plate for >1 minute. • Incubate plate for >5 minutes to stabilize luminescence. • Luminescence is stable for up to 3 hours. • Read luminescence on plate reader
In general terms: ATP-based viability assays read luminescence as a measure of living cells.

Data set [3] deals with K48-Ub. Put plainly: K48-Ub immunofluorescence assay in A549 cells. The data set is classed as cell-based. The settings on record: Homo sapiens, 6 hr incubation. As for the experimental part:
Image-analysis is used to generate quantitative data from these assays that can be fit to a four-parameter sigmoid curve to derive IC50 values. Substrates of the ubiquitin-proteasome system, such as p53, are monitored after tumor cell lines are incubated with compounds for several hours. Accumulation of these proteins indicates an inhibition of proteasome-mediated degradation. Accumulation of lysine-48 chain linkage of poly-ubiquitin is also monitored by immunofluorescence as an indicator of ubiquitin-proteasome system inhibition. Both LC3 and SQSTM1 are mediators of autophagy. The localization and amounts of these proteins are monitored by immunofluorescence and report on the activity and inhibition of autophagy in response to p97 inhibition.
as §1, §2, §3
Fix/Stain Black Plates: • Incubate cells in black plates with compound at 37 deg C. for 6 hrs. • add 15 μL of 16% Paraformaldehyde (PFA) directly into media of each well, • incubate at room temp for 5 min, flick plate and wash in 50 μL of PBS • block in 50 μL of Blocking Buffer for 30 minutes (can go up to several hours) • Blocking buffer: 1×PBS, 1% BSA, 0.3% Triton-X100, Hoechst (1:10,000) • incubate in 25 μL of primary antibody in blocking buffer at 4 deg C. over night
Secondary Antibodies: • AlexaFluor488 Goat anti-Rabbit 1:2,000 (Life Tech A11008) • AlexaFluor555 Goat anti-Mouse 1:2,000 (Life Tech A21422) […]
Data Analysis: • Nuclear counts and cellular intensities of each markers are measured using Hoechst as a nuclear marker with an automated image analysis protocol using Matlab software (Math Works)

Data set [4] has as its system Caco-2 cells.

p97, sequence (P55072 whole entry): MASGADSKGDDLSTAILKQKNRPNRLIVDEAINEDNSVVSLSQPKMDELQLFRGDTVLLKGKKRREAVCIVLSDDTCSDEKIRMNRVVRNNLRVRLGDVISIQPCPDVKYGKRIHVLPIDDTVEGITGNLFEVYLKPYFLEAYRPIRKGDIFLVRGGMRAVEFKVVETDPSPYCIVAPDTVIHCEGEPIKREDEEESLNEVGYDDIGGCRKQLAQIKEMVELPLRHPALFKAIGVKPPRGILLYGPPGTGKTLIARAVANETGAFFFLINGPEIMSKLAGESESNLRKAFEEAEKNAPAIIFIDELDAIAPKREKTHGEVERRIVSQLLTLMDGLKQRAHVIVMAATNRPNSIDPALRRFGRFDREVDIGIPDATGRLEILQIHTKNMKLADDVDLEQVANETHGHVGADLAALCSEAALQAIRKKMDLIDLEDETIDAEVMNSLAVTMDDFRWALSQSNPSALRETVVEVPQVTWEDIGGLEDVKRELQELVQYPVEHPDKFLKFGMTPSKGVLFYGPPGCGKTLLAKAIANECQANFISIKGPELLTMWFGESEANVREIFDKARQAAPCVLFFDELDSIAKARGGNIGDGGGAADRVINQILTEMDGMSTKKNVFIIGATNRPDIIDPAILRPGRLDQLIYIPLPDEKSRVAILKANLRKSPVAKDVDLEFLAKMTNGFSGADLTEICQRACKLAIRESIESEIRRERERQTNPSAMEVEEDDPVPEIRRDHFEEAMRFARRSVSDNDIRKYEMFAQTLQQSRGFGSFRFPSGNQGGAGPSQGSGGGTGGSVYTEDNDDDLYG

On to `Cc1nnc(-n2c(C)cc3c(C(N)=O)cccc32)nc1NCc1cccc(F)c1` [1-(5-((3-fluorobenzyl)amino)-6-methyl-1,2,4-triazin-3-yl)-2-methyl-1H-indole-4-carboxamide], for which the IC50 was below 1 µM in data set [1], below 10 µM in data set [2] and below 3 µM in data set [3].
For `CC(C)NCC(O)COc1cccc2ccccc12` (stereo not shown) [Propranolol], the “Peff A B, Range” value in data set [4] (pH 7.4 Caco-2, A to B) is 18.50-36.80 ×E−6 cm/sec. Further, in data set [4] (pH 7.4 Caco-2, B to A), the “Peff B A, Range” value is given as 16.30-31.40 ×E−6 cm/sec.
As to `Cc1nc(NCc2ccccc2)nc(-n2c(C)cc3c(C(N)=O)cccc32)n1` [1-(4-(benzylamino)-6-methyl-1,3,5-triazin-2-yl)-2-methyl-1H-indole-4-carboxamide], the values for the IC50 in data set [1], in data set [2] and in data set [3] were below 0.1 µM, below 10 µM and below 3 µM, respectively.
For the compound `COc1nc2c(C#N)cccc2n1-c1nnc(C)c(NCc2ccccc2)n1` [1-(5-(benzylamino)-6-methyl-1,2,4-triazin-3-yl)-2-methoxy-1H-benzo[d]imidazole-4-carbonitrile], the IC50 in data set [1] is below 10 µM.
Same read-out and setting: with `Cc1nnc(-n2c(CN)cc3c(C(N)=O)cccc32)nc1NCc1ccccc1` [2-(aminomethyl)-1-(5-(benzylamino)-6-methyl-1,2,4-triazin-3-yl)-1H-indole-4-carboxamide] the figure was below 10 µM.
As to `Cc1nnc(-n2c(C)cc3c(C(N)=O)cccc32)nc1NCc1ccccc1` [1-(5-(benzylamino)-6-methyl-1,2,4-triazin-3-yl)-2-methyl-1H-indole-4-carboxamide], the IC50 in data set [1] is below 0.03 µM; in data set [2] it was below 3 µM; in data set [3] it was below 3 µM.
Turning to `CCc1nnc(-n2c(C)cc3c(C(N)=O)cccc32)nc1NCc1ccccc1` [1-(5-(benzylamino)-6-ethyl-1,2,4-triazin-3-yl)-2-methyl-1H-indole-4-carboxamide], the IC50 in data set [1] was below 0.03 µM; in data set [2] it was below 1 µM; in data set [3], below 1 µM.

As usually defined, the IC50 is the concentration needed to halve the response being measured.
